The results in this text go back to patent publication US7064120B2, “Tricyclic pyridyl carboxamides and derivatives thereof tocolytic oxytocin receptor antagonists” (Wyeth, priority 2001, dated 2006).

By inhibition is commonly meant the drop in the measured response relative to a control, in per cent. Usually IC50 stands for the concentration that inhibits the measured activity by half.

In one assay the target is T1, human vasopressin V1a receptor subtype (Homo sapiens, UniProt P37288).
T1 construct: host or cells: CHO cells, stably transfected (pZeoSV vector for the Thibonnier line)
T1 sequence (P37288 whole entry): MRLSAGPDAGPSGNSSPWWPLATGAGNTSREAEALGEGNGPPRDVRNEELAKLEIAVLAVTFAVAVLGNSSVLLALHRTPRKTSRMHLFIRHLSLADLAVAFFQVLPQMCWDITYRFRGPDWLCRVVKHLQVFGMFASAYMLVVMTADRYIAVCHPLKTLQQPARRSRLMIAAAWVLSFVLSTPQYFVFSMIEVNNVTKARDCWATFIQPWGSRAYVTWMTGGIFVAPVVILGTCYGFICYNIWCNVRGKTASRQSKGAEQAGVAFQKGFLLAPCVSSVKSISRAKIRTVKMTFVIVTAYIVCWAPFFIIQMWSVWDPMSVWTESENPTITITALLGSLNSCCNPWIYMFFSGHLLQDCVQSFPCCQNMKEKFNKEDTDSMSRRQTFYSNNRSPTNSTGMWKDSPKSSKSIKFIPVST
The assay can be described thus: Vasopressin binding in CHO cell membranes expressing human vasopressin V1a subtype receptors ([3H]Manning ligand radioligand binding). As to conditions: 100 nM. In short, it runs like this: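 Membranes from CHO cells expressing human V1a, 25–50 μg protein/well, incubated 60 min at room temperature with [3H]Manning ligand (20 μL of 8 nM stock) in 50 mM Tris-HCl pH 7.4 with BSA, MgCl2 and protease inhibitors. Filtration then scintillation counting; reported as % inhibition or IC50 (nM).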
Turning to `COc1cccc(-c2cc(OC)c(C(=O)N3Cc4ccc(C(=O)N(C)CCc5ccccn5)n4Cc4ccccc43)cc2Cl)c1` [Example 70, 10-[(6-Chloro-3,3′-dimethoxy-[1,1′-biphenyl]-4-yl)carbonyl]-N-methyl-N-[2-(2-pyridinyl)ethyl]-10,11-dihydro-5H-pyrrolo[2,1-c][1,4]benzodiazepine-3-carboxamide], the inhibition at 0.1 µM was 8%.
Still for that read-out and setting: to `COc1ccccc1-c1ccc(C(=O)N2Cc3ccc(C(=O)N(C)CCc4ccccn4)n3Cc3ccccc32)cc1C` [Example 65, 10-[(2′-Methoxy-2-methyl-[1,1′-biphenyl]-4-yl)carbonyl]-N-methyl-N-[2-(2-pyridinyl)ethyl]-10,11-dihydro-5H-pyrrolo[2,1-c][1,4]benzodiazepine-3-carboxamide] belongs 25%.
Still for that read-out and setting: with `COc1cc(C(=O)N2Cc3ccc(C(=O)NCc4ccncc4)n3Cc3ccccc32)ccc1-c1ccccc1C` [Example 93, 10-[(2-Methoxy-2′-methyl-[1,1′-biphenyl]-4-yl)carbonyl]-N-(4-pyridinylmethyl)-10,11-dihydro-5H-pyrrolo[2,1-c][1,4]benzodiazepine-3-carboxamide] the figure was 50%; with `Cc1ccccc1-c1ccc(C(=O)N2Cc3ccc(C(=O)N(C)Cc4cccnc4)n3Cc3ccccc32)cc1` [Example 105, N-Methyl-10-[(2′-methyl-[1,1′-biphenyl]-4-yl)carbonyl]-N-(3-pyridinylmethyl)-10,11-dihydro-5H-pyrrolo[2,1-c][1,4]benzodiazepine-3-carboxamide], 0%; with `COc1cccc(-c2ccc(C(=O)N3Cc4ccc(C(=O)N5CCN(c6ccccn6)CC5)n4Cc4ccccc43)cc2C)c1` [Example 77, {10-[(3′-Methoxy-2-methyl-[1,1′-biphenyl]-4-yl)carbonyl]-10,11-dihydro-5H-pyrrolo[2,1-c][1,4]benzodiazepin-3-yl}[4-(2-pyridinyl)-1-piperazinyl]methanone], 5%.
The same measure, in the same setting: with `COc1cccc(-c2ccc(C(=O)N3Cc4ccc(C(=O)NCc5ccncc5)n4Cc4ccccc43)cc2C)c1` [Example 90, 10-[(3′-Methoxy-2-methyl-[1,1′-biphenyl]-4-yl)carbonyl]-N-(4-pyridinylmethyl)-10,11-dihydro-5H-pyrrolo[2,1-c][1,4]benzodiazepine-3-carboxamide] the figure was 14%; with `Cc1cc(C(=O)N2Cc3ccc(C(=O)N(C)CCc4ccccn4)n3Cc3ccccc32)ccc1-c1ccccc1C(F)(F)F` [Example 74, N-Methyl-10-{[2-methyl-2′-trifluoromethyl-[1,1′-biphenyl]-4-yl]carbonyl}-N-[2-(2-pyridinyl)ethyl]-10,11-dihydro-5H-pyrrolo[2,1-c][1,4]benzodiazepine-3-carboxamide], 63%.
Consider `O=C(NCc1ccncc1)c1ccc2n1Cc1ccccc1N(C(=O)c1ccc(-c3cccc4ccccc34)cc1Cl)C2` [Example 99, 10-[2-Chloro-4-(naphthalen-1-yl)benzoyl]-N-(4-pyridinylmethyl)-10,11-dihydro-5H-pyrrolo[2,1-c][1,4]benzodiazepine-3-carboxamide], for which the inhibition at 0.1 µM is -7%.
The same measure, in the same setting: to `COc1ccccc1-c1ccc(C(=O)N2Cc3ccc(C(=O)N4CCN(c5ccccn5)CC4)n3Cc3ccccc32)cc1OC` [Example 84, {10-[(2,2′-Dimethoxy-[1,1′-biphenyl]-4-yl)carbonyl]-10,11-dihydro-5H-pyrrolo[2,1-c][1,4]benzodiazepin-3-yl}[4-(2-pyridinyl)-1-piperazinyl]methanone] belongs 3%.
Same read-out and setting: to `CN(CCc1ccccn1)C(=O)c1ccc2n1Cc1ccccc1N(C(=O)c1ccc(-c3cccc4ccccc34)cc1Cl)C2` [Example 73, 10-[2-Chloro-4-(naphthalen-1-yl)benzoyl]-N-methyl-N-[2-(2-pyridinyl)ethyl]-10,11-dihydro-5H-pyrrolo[2,1-c][1,4]benzodiazepine-3-carboxamide] belongs 6%.
Still for that read-out and setting: to `COc1ccccc1-c1ccc(C(=O)N2Cc3ccc(C(=O)NCc4ccncc4)n3Cc3ccccc32)cc1` [Example 91, 10-[(2′-Methoxy-[1,1′-biphenyl]-4-yl)carbonyl]-N-(4-pyridinylmethyl)-10,11-dihydro-5H-pyrrolo[2,1-c][1,4]benzodiazepine-3-carboxamide] belongs 11%; to `Cc1ccccc1-c1ccc(C(=O)N2Cc3ccc(C(=O)N4CCN(c5ccccn5)CC4)n3Cc3ccccc32)cc1` [Example 79, {10-[(2′-Methyl-[1,1′-biphenyl]-4-yl)carbonyl]-10,11-dihydro-5H-pyrrolo[2,1-c][1,4]benzodiazepin-3-yl}[4-(2-pyridinyl)-1-piperazinyl]methanone], 18%.
`Cc1ccccc1-c1ccc(C(=O)N2Cc3ccc(C(=O)NCc4ccncc4)n3Cc3ccccc32)cc1` [Example 92, 10-[(2′-Methyl-[1,1′-biphenyl]-4-yl)carbonyl]-N-(4-pyridinylmethyl)-10,11-dihydro-5H-pyrrolo[2,1-c][1,4]benzodiazepine-3-carboxamide]: the inhibition at 0.1 µM turned out to be 21%.
On to `COc1cc(C(=O)N2Cc3ccc(C(=O)N(C)CCc4ccccn4)n3Cc3ccccc32)ccc1-c1cccc2ccccc12` [Example 71, 10-[3-Methoxy-4-(naphthalen-1-yl)benzoyl]-N-methyl-N-[2-(2-pyridinyl)ethyl]-10,11-dihydro-5H-pyrrolo[2,1-c][1,4]benzodiazepine-3-carboxamide], for which the inhibition at 0.1 µM was 20%.
Still for that read-out and setting: with `COc1ccccc1-c1ccc(C(=O)N2Cc3ccc(C(=O)NCc4ccncc4)n3Cc3ccccc32)cc1C` [Example 88, 10-[(2′-Methoxy-2-methyl-[1,1′-biphenyl]-4-yl)carbonyl]-N-(4-pyridinylmethyl)-10,11-dihydro-5H-pyrrolo[2,1-c][1,4]benzodiazepine-3-carboxamide] the figure was 8%.
On to `COc1cc(-c2ccccc2C)c(Cl)cc1C(=O)N1Cc2ccc(C(=O)NCc3ccncc3)n2Cc2ccccc21` [Example 94, 10-[(6-Chloro-3-methoxy-2′-methyl-[1,1′-biphenyl]-4-yl)carbonyl]-N-(4-pyridinylmethyl)-10,11-dihydro-5H-pyrrolo[2,1-c][1,4]benzodiazepine-3-carboxamide], for which the inhibition at 0.1 µM came to 0%.
Same read-out and setting: to `Cc1ccccc1-c1ccc(C(=O)N2Cc3ccc(C(=O)N(C)CCc4ccccn4)n3Cc3ccccc32)cc1` [Example 68, N-Methyl-10-[(2′-methyl-[1,1′-biphenyl]-4-yl)carbonyl]-N-[2-(2-pyridinyl)ethyl]-10,11-dihydro-5H-pyrrolo[2,1-c][1,4]benzodiazepine-3-carboxamide] belongs 81%; to `COc1ccccc1-c1ccc(C(=O)N2Cc3ccc(C(=O)N(C)Cc4cccnc4)n3Cc3ccccc32)cc1` [Example 104, 10-[(2′-Methoxy-[1,1′-biphenyl]-4-yl)carbonyl]-N-methyl-N-(3-pyridinylmethyl)-10,11-dihydro-5H-pyrrolo[2,1-c][1,4]benzodiazepine-3-carboxamide], 32%; to `COc1cccc(-c2ccc(C(=O)N3Cc4ccc(C(=O)N5CCN(c6ccccn6)CC5)n4Cc4ccccc43)cc2OC)c1` [Example 85, {10-[(2,3′-Dimethoxy-[1,1′-biphenyl]-4-yl)carbonyl]-10,11-dihydro-5H-pyrrolo[2,1-c][1,4]benzodiazepin-3-yl}[4-(2-pyridinyl)-1-piperazinyl]methanone], -5%.

The assay is the same for the next values; noted with them: value in parentheses.
Regarding `COc1cc(C(=O)N2Cc3ccc(C(=O)N(C)Cc4ccc[n+]([O-])c4)n3Cc3ccccc32)ccc1-c1ccccc1C(F)(F)F` [Example 8, 10-{[2-Methoxy-2′-trifluoromethyl-[1,1′-biphenyl]-4-yl]carbonyl}-N-methyl-N-(1-oxo-pyridin-3-ylmethyl)-10,11-dihydro-5H-pyrrolo[2,1-c][1,4]benzodiazepine-3-carboxamide], the IC50 is 801 nM.
Same read-out and setting: with `Cc1cc(C(=O)N2Cc3ccc(C(=O)N(C)Cc4cccnc4)n3Cc3ccccc32)ccc1-c1ccccc1C(F)(F)F` [Example 112, N-Methyl-10-{[2-methyl-2′-trifluoromethyl-[1,1′-biphenyl]-4-yl]carbonyl}-N-(3-pyridinylmethyl)-10,11-dihydro-5H-pyrrolo[2,1-c][1,4]benzodiazepine-3-carboxamide] the figure was 1600 nM; with `COc1ccccc1-c1ccc(C(=O)N2Cc3ccc(C(=O)N4CCN(c5ccncc5)CC4)n3Cc3ccccc32)cc1C` [Example 113, {10-[(2′-Methoxy-2-methyl-[1,1′-biphenyl]-4-yl)carbonyl]-10,11-dihydro-5H-pyrrolo[2,1-c][1,4]benzodiazepin-3-yl}[4-(4-pyridinyl)-1-piperazinyl]methanone], 365 nM.
Still for that read-out and setting: with `COc1cc(-c2ccccc2C)c(Cl)cc1C(=O)N1Cc2ccc(C(=O)N(C)CCc3ccccn3)n2Cc2ccccc21` [Example 63, 10-[(6-Chloro-3-methoxy-2′-methyl-[1,1′-biphenyl]-4-yl)carbonyl]-N-methyl-N-[2-(2-pyridinyl)ethyl]-10,11-dihydro-5H-pyrrolo[2,1-c][1,4]benzodiazepine-3-carboxamide] the figure was 273 nM; with `Cc1cc(C(=O)N2Cc3ccc(C(=O)N(C)Cc4ccc[n+]([O-])c4)n3Cc3ccccc32)ccc1-c1ccccc1C(F)(F)F` [Example 4, N-Methyl-10-{[2-methyl-2′-trifluoromethyl-[1,1′-biphenyl]-4-yl]carbonyl}-N-[(1-oxidopyridin-3-yl)methyl]-10,11-dihydro-5H-pyrrolo[2,1-c][1,4]benzodiazepine-3-carboxamide], 792 nM.
On the same count and under the same terms, with `COc1ccccc1-c1ccc(C(=O)N2Cc3ccc(C(=O)N(C)Cc4cccnc4)n3Cc3ccccc32)cc1OC` [Example 103, 10-[(2,2′-Dimethoxy-[1,1′-biphenyl]-4-yl)carbonyl]-N-methyl-N-(3-pyridinylmethyl)-10,11-dihydro-5H-pyrrolo[2,1-c][1,4]benzodiazepine-3-carboxamide] the figure was 449 nM.
